Laboratory results as given in patent US20120316105A1, “Polymyxin Derivates Useful As Antibacterial Agents” (priority 2011, published 2012).
Bridge positions count the residues as written; N and C are the ends. Square brackets hold non-standard residues; d marks the D form. Peptide text beside a SMILES is read from it. * marks the point of attachment. X13 = N#Cc1ccc(-c2cc(C(=O)*)ccc2F)cc1; X17 = N#Cc1ccc(-c2cccc(C(=O)*)c2)cc1; X19 = N#Cc1ccc(-c2cccc(C(=O)*)c2)nc1; X2 = N#Cc1ccc(-c2cc(C(=O)*)ccn2)cc1F; X22 = COc1cccc(-c2cc(C(=O)*)ccn2)c1; X25 = O=C(c1ccc(Cl)c(-c2ccccn2)c1)*; X16 = O=C(c1ccc(-c2ccccc2)nc1)*; X27 = O=C(c1cncc(-c2ccccc2)c1)*; X8 = O=C(c1cc(-c2ccccc2)ccc1F)*; X14 = CC(C)c1cccc(C(=O)*)c1; Dab = NCC[C@H](N)C(=O)O; Dap = NC[C@H](N)C(=O)O

Tests used:
[1] = system: Pseudomonas aeruginosa strain PA01; type: cell-based; conditions: strain
In short: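 CLSI broth dilution against P. aeruginosa PA01 with two-fold concentration steps and overnight incubation; MIC is lowest concentration visibly inhibiting growth versus drug-free control, in mg/L. Compounds tested as trifluoroacetate salts, in duplicate, lower value reported if within 2-fold; control organisms and reference compounds included.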

[2] = system: AB-3167, clinical isolate of Acinetobacter baumannii; type: cell-based; conditions: AB-3167, clinical isolate of
In short: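 Broth dilution MIC per CLSI (M7-A8, M100-S20, M26-A for bactericidal), 2-fold dilution series, overnight incubation, visual read of lowest concentration inhibiting growth versus drug-free control. Duplicates run; lower value reported if within 2-fold, otherwise repeated. Compounds tested as trifluoroacetate salts; QC strains and reference compounds required in range.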

[3] = system: PA-1646, polymyxin-resistant clinical isolate of Pseudomonas aeruginosa; type: cell-based; conditions: PA-1646, polymyxin-resistant clinical isolate of
In short: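 Broth dilution MIC per CLSI with 2-fold concentration steps, read visually after overnight incubation as lowest concentration inhibiting growth; duplicates within 2-fold, lower value reported, with QC strains and reference compounds. Compounds tested as trifluoroacetate salts, polymyxin B as sulfate.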

[4] = system: AB-1649, polymyxin-resistant clinical isolate of Acinetobacter baumannii; type: cell-based; conditions: AB-1649, polymyxin-resistant clinical isolate of
In short: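 Broth dilution MIC per CLSI against the polymyxin-resistant A. baumannii isolate, 2-fold dilutions, overnight incubation, visual read of lowest concentration inhibiting growth. Run in duplicate, lower value reported when within 2-fold; MBC per CLSI M26-A guideline.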

[5] = Cytotoxicity assay (LDH release), hRPTEC; type: cell-based, human; conditions: human
In short: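 hRPTEC grown 72 h in REGM, then exposed to compounds at 100, 67, 44, 30, 20 and 13 micromolar for 24 h at 37° C, 5% CO2. LDH released into supernatant measured; TC50 (micromolar) derived. Compounds tested as trifluoroacetate salts unless otherwise noted.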

[6] = system: EC-1, mouse virulent strain of Escherichia coli; type: cell-based; conditions: E. coli EC-1; overnight incubation, lower of duplicate values; trifluoroacetate salt (Example 1 and PMB sulfate)
In short: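 Compounds were tested mostly as trifluoroacetate salts. Duplicate CLSI broth-dilution MICs were read visually after overnight incubation over 2-fold dilutions, with the lower of duplicates within 2-fold taken. QC organisms and reference drugs were included in each run.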

[7] = system: PA-1646, polymyxin-resistant clinical isolate of Pseudomonas aeruginosa; type: cell-based; conditions: PA-1646, polymyxin-resistant clinical isolate of; remark: listed apart in the source
In short: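 Broth dilution MIC and bactericidal (MBC) testing per CLSI methods (M7-A8, M100-S20, M26-A) against polymyxin-resistant clinical P. aeruginosa isolate PA-1646. Compounds tested as trifluoroacetate salts, one as sulfate salt; values in mg/L.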

[8] = system: AB-1649, polymyxin-resistant clinical isolate of Acinetobacter baumannii; type: cell-based; conditions: AB-1649, polymyxin-resistant clinical isolate of; remark: listed apart in the source
In short: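 MIC and MBC were measured by CLSI broth dilution methods (M7-A8, M100-S20, M26-A) against a polymyxin-resistant clinical isolate and reported in mg/L. Compounds were tested as trifluoroacetate salts, with one exception tested as the sulfate.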

## CC(C)C[C@@H]1NC(=O)[C@@H](Cc2ccccc2)NC(=O)[C@H](CCN)NC(=O)[C@@H](NC(=O)[C@H](CN)NC(=O)[C@@H](NC(=O)[C@H](CCN)NC(=O)c2cccc(C(C)C)c2)[C@@H](C)O)CCNC(=O)[C@H]([C@@H](C)O)NC(=O)[C@H](CCN)NC(=O)[C@H](CCN)NC1=O [Example 25] (X14-[Dab]T[Dap][Dab][Dab][dF]L[Dab][Dab]T; lactam 4-C)
[1]
  PA01 MIC: 1 µg/mL
[2]
  AB-3167 MIC: 0.25 µg/mL
[3]
  PA-1646 MIC: 4 µg/mL
[4]
  AB-1649 MIC: 4 µg/mL
[5]
  CC50 at 24 h: 88 µM
[6]
  EC-1 MIC: 0.25 µg/mL
[7]
  PA-1646 MBC: 16 µg/mL
[8]
  AB-1649 MBC: 4 µg/mL

## CC(C)C[C@@H]1NC(=O)[C@@H](Cc2ccccc2)NC(=O)[C@H](CCN)NC(=O)[C@@H](NC(=O)[C@H](CN)NC(=O)[C@@H](NC(=O)[C@H](CCN)NC(=O)c2cccc(-c3ccc(C#N)cn3)c2)[C@@H](C)O)CCNC(=O)[C@H]([C@@H](C)O)NC(=O)[C@H](CCN)NC(=O)[C@H](CCN)NC1=O [Example 26] (X19-[Dab]T[Dap][Dab][Dab][dF]L[Dab][Dab]T; lactam 4-C)
[1]
  PA01 MIC: 1 µg/mL
[2]
  AB-3167 MIC: 1 µg/mL
[3]
  PA-1646 MIC: 4 µg/mL
[4]
  AB-1649 MIC: 4 µg/mL
[5]
  CC50 at 24 h: 77 µM
[6]
  EC-1 MIC: 0.25 µg/mL
[7]
  PA-1646 MBC: 8 µg/mL
[8]
  AB-1649 MBC: 4 µg/mL

## CC(C)C[C@@H]1NC(=O)[C@@H](Cc2ccccc2)NC(=O)[C@H](CCN)NC(=O)[C@@H](NC(=O)[C@H](CN)NC(=O)[C@@H](NC(=O)[C@H](CCN)NC(=O)c2ccc(-c3ccccc3)nc2)[C@@H](C)O)CCNC(=O)[C@H]([C@@H](C)O)NC(=O)[C@H](CCN)NC(=O)[C@H](CCN)NC1=O [Example 27] (X16-[Dab]T[Dap][Dab][Dab][dF]L[Dab][Dab]T; lactam 4-C)
[1]
  PA01 MIC: 0.5 µg/mL
[2]
  AB-3167 MIC: 0.25 µg/mL
[3]
  PA-1646 MIC: 2 µg/mL
[4]
  AB-1649 MIC: 4 µg/mL
[5]
  CC50 at 24 h: 73 µM
[6]
  EC-1 MIC: 0.125 µg/mL
[7]
  PA-1646 MBC: 4 µg/mL
[8]
  AB-1649 MBC: 4 µg/mL

## CC(C)C[C@@H]1NC(=O)[C@@H](Cc2ccccc2)NC(=O)[C@H](CCN)NC(=O)[C@@H](NC(=O)[C@H](CN)NC(=O)[C@@H](NC(=O)[C@H](CCN)NC(=O)c2ccc(Cl)c(-c3ccccn3)c2)[C@@H](C)O)CCNC(=O)[C@H]([C@@H](C)O)NC(=O)[C@H](CCN)NC(=O)[C@H](CCN)NC1=O [Example 28] (X25-[Dab]T[Dap][Dab][Dab][dF]L[Dab][Dab]T; lactam 4-C)
[1]
  PA01 MIC: 1 µg/mL
[2]
  AB-3167 MIC: 0.25 µg/mL
[3]
  PA-1646 MIC: 4 µg/mL
[4]
  AB-1649 MIC: 4 µg/mL
[5]
  CC50 at 24 h: 72 µM
[6]
  EC-1 MIC: 0.25 µg/mL
[7]
  PA-1646 MBC: 16 µg/mL
[8]
  AB-1649 MBC: 4 µg/mL

## COc1cccc(-c2cc(C(=O)N[C@@H](CCN)C(=O)N[C@H](C(=O)N[C@@H](CN)C(=O)N[C@H]3CCNC(=O)[C@H]([C@@H](C)O)NC(=O)[C@H](CCN)NC(=O)[C@H](CCN)NC(=O)[C@H](CC(C)C)NC(=O)[C@@H](Cc4ccccc4)NC(=O)[C@H](CCN)NC3=O)[C@@H](C)O)ccn2)c1 [Example 29] (X22-[Dab]T[Dap][Dab][Dab][dF]L[Dab][Dab]T; lactam 4-C)
[1]
  PA01 MIC: 1 µg/mL
[2]
  AB-3167 MIC: 0.5 µg/mL
[3]
  PA-1646 MIC: 4 µg/mL
[4]
  AB-1649 MIC: 4 µg/mL
[5]
  CC50 at 24 h: 70 µM
[6]
  EC-1 MIC: 0.5 µg/mL
[7]
  PA-1646 MBC: 32 µg/mL
[8]
  AB-1649 MBC: 4 µg/mL

## CC(C)C[C@@H]1NC(=O)[C@@H](Cc2ccccc2)NC(=O)[C@H](CCN)NC(=O)[C@@H](NC(=O)[C@H](CN)NC(=O)[C@@H](NC(=O)[C@H](CCN)NC(=O)c2cncc(-c3ccccc3)c2)[C@@H](C)O)CCNC(=O)[C@H]([C@@H](C)O)NC(=O)[C@H](CCN)NC(=O)[C@H](CCN)NC1=O [Example 30] (X27-[Dab]T[Dap][Dab][Dab][dF]L[Dab][Dab]T; lactam 4-C)
[1]
  PA01 MIC: 0.5 µg/mL
[2]
  AB-3167 MIC: 0.25 µg/mL
[3]
  PA-1646 MIC: 2 µg/mL
[4]
  AB-1649 MIC: 4 µg/mL
[5]
  CC50 at 24 h: 56 µM
[6]
  EC-1 MIC: 0.125 µg/mL
[7]
  PA-1646 MBC: 4 µg/mL
[8]
  AB-1649 MBC: 4 µg/mL

## CC(C)C[C@@H]1NC(=O)[C@@H](Cc2ccccc2)NC(=O)[C@H](CCN)NC(=O)[C@@H](NC(=O)[C@H](CN)NC(=O)[C@@H](NC(=O)[C@H](CCN)NC(=O)c2ccnc(-c3ccc(C#N)c(F)c3)c2)[C@@H](C)O)CCNC(=O)[C@H]([C@@H](C)O)NC(=O)[C@H](CCN)NC(=O)[C@H](CCN)NC1=O [Example 31] (X2-[Dab]T[Dap][Dab][Dab][dF]L[Dab][Dab]T; lactam 4-C)
[1]
  PA01 MIC: 1 µg/mL
[2]
  AB-3167 MIC: 0.5 µg/mL
[3]
  PA-1646 MIC: 4 µg/mL
[4]
  AB-1649 MIC: 4 µg/mL
[5]
  CC50 at 24 h: 55 µM
[6]
  EC-1 MIC: 0.5 µg/mL
[7]
  PA-1646 MBC: 8 µg/mL
[8]
  AB-1649 MBC: 16 µg/mL

## CC(C)C[C@@H]1NC(=O)[C@@H](Cc2ccccc2)NC(=O)[C@H](CCN)NC(=O)[C@@H](NC(=O)[C@H](CN)NC(=O)[C@@H](NC(=O)[C@H](CCN)NC(=O)c2cccc(-c3ccc(C#N)cc3)c2)[C@@H](C)O)CCNC(=O)[C@H]([C@@H](C)O)NC(=O)[C@H](CCN)NC(=O)[C@H](CCN)NC1=O [Example 32] (X17-[Dab]T[Dap][Dab][Dab][dF]L[Dab][Dab]T; lactam 4-C)
[1]
  PA01 MIC: 0.5 µg/mL
[2]
  AB-3167 MIC: 0.5 µg/mL
[3]
  PA-1646 MIC: 2 µg/mL
[4]
  AB-1649 MIC: 4 µg/mL
[5]
  CC50 at 24 h: 33 µM
[6]
  EC-1 MIC: 0.25 µg/mL
[7]
  PA-1646 MBC: 4 µg/mL
[8]
  AB-1649 MBC: 4 µg/mL

## CC(C)C[C@@H]1NC(=O)[C@@H](Cc2ccccc2)NC(=O)[C@H](CCN)NC(=O)[C@@H](NC(=O)[C@H](CN)NC(=O)[C@@H](NC(=O)[C@H](CCN)NC(=O)c2ccc(F)c(-c3ccc(C#N)cc3)c2)[C@@H](C)O)CCNC(=O)[C@H]([C@@H](C)O)NC(=O)[C@H](CCN)NC(=O)[C@H](CCN)NC1=O [Example 33] (X13-[Dab]T[Dap][Dab][Dab][dF]L[Dab][Dab]T; lactam 4-C)
[1]
  PA01 MIC: 2 µg/mL
[2]
  AB-3167 MIC: 1 µg/mL
[3]
  PA-1646 MIC: 2 µg/mL
[4]
  AB-1649 MIC: 4 µg/mL
[5]
  CC50 at 24 h: 30 µM
[6]
  EC-1 MIC: 0.5 µg/mL
[7]
  PA-1646 MBC: 8 µg/mL
[8]
  AB-1649 MBC: 4 µg/mL

## CC(C)C[C@@H]1NC(=O)[C@@H](Cc2ccccc2)NC(=O)[C@H](CCN)NC(=O)[C@@H](NC(=O)[C@H](CN)NC(=O)[C@@H](NC(=O)[C@H](CCN)NC(=O)c2cc(-c3ccccc3)ccc2F)[C@@H](C)O)CCNC(=O)[C@H]([C@@H](C)O)NC(=O)[C@H](CCN)NC(=O)[C@H](CCN)NC1=O [Example 34] (X8-[Dab]T[Dap][Dab][Dab][dF]L[Dab][Dab]T; lactam 4-C)
[1]
  PA01 MIC: 0.5 µg/mL
[2]
  AB-3167 MIC: 0.25 µg/mL
[3]
  PA-1646 MIC: 2 µg/mL
[4]
  AB-1649 MIC: 16 µg/mL
[5]
  CC50 at 24 h: 28 µM
[6]
  EC-1 MIC: 0.125 µg/mL
[7]
  PA-1646 MBC: 8 µg/mL
[8]
  AB-1649 MBC: 16 µg/mL
